“Also recorded” adds a separate entry of the source.
What was measured:
β-TrCP1 and β-TrCP2 = assay: NRF2/HO-1 induction after lentiviral silencing of β-TrCP1/2 in Keap1−/− MEFs; assay type: cell-based, mouse
Protocol: (§1) In vitro kinase assay and in vitro ubiquitination. For the recognition and degradation of NRF2 by βTrCP, the serines 335, 338, 342 and 347 located at the Neh6 domain of NRF2 need to be previously phosphorylated by the kinase GSK-3β (FIG. 1). Therefore, to obtain the phosphorylated substrate, 20 ng recombinant NRF2-DETGE was used together with 0.5 μg of recombinant GSK-3β incubated at 30° C. for 60 min. The result was analyzed by western blot. After confirming the existence of phosphorylation in the residues of interest, an in vitro ubiquitination assay was carried out using the recombinant proteins that make up the E3 ubiquitin ligase complex. The ubiquitination reaction was carried out using: ATP (2 mM), […], SCF-βTrCP (450 nM), and non-phosphorylated or phosphorylated NRF2 (20 ng), in a specific ubiquitination buffer (30 mM Tris pH 7.6, 5 mM MgCl2, 2 mM dithiothreitol, 100 mM NaCl). Before the ubiquitination reactions, the E1, Cdc34b, and ubiquitin components were incubated together for 2 min to allow the E2 thioester bond to form. The reactions were incubated for 1 hour at 25° C. in the presence or absence of PHAR (3 μM) in order to determine whether or not PHAR inhibits ubiquitination by βTrCP. […] The PI3K/AKT signaling pathway is inhibited, and therefore GSK-3β is activated with the PI3K inhibitor, LY294002. As a result, NRF2 is phosphorylated by GSK-3β and marked for degradation by means of interaction with β-TrCP. Therefore, if PHAR is capable of inhibiting βTrCP-NRF2 interaction, the NRF2 levels will remain stable independently of the activation and phosphorylation by GSK-3β. The obtained result corroborates this. • 3. Using lentiviral silencing of the two isoforms described for β-TrCP (β-TrCP1 and β-TrCP2) in MEFs originating from Keap1 knockout mice (Keap′1−/−).
FIG. 6. PHAR increases NRF2 protein levels in a β-TrCP-dependent manner. A) In vitro phosphorylation of recombinant NRF2-DETGE by recombinant GSK-3β. Phosphorylation at residues 335, 338, 342 and 347 was analyzed by western blot. B) In vitro ubiquitination of NRF2 or pNRF2 by the βTrCP complex. NRF2 and pNRF2 (20 ng) were incubated at 25° C. for 1 h with purified ubiquitin, E1/cdc34b, βTrCP/Skp1 and Cull/Rbx1 as indicated in the presence or absence of PHAR […] or vehicle (DMSO). Polyubiquitinated NRF2 was detected by western blot with anti-ubiquitin antibody. […] E), densitometric analysis of NRF2 protein levels of the representative immunoblot of (D), expressed as a ratio of NRF2/GAPDH. […] G), densitometric analysis of NRF2 and HO1 protein levels of the representative immunoblots of (F), expressed as a ratio of NRF2 and HO1/GAPDH. […]

SCF-βTrCP / NRF2 = SCF-βTrCP / NRF2 (Homo sapiens, UniProt Q9Y297); assay: In vitro ubiquitination of phosphorylated NRF2 by the βTrCP complex; assay type: biochemical; details: for ubiquitination (polyubiquitination) of NRF2 by βTrCP: PHAR 3 μM, 1 hour at 25° C., western blot
Protocol: as §1, with “The obtained result corroborates this. • 3. Using lentiviral silencing of the two isoforms described for β-TrCP (β-TrCP1 and β-TrCP2) in MEFs originating from Keap1 knockout mice (Keap′1−/−).” left out
FIG. 6. […] Phosphorylation at residues 335, 338, 342 and 347 was analyzed by western blot. […] Polyubiquitinated NRF2 was detected by western blot with anti-ubiquitin antibody. […] E), densitometric analysis of NRF2 protein levels of the representative immunoblot of (D), expressed as a ratio of NRF2/GAPDH. […] G), densitometric analysis of NRF2 and HO1 protein levels of the representative immunoblots of (F), expressed as a ratio of NRF2 and HO1/GAPDH. […]

[1] = Preliminary safety study, 4 weeks IP treatment in control and STZ-treated mice; assay type: in vivo, mouse
Protocol: FIG. 10. […] A preliminary safety profile of PHAR treatment was assessed in […] control and streptozotocin (STZ) treated mice. These mice were subjected to a daily IP dose of […] of vehicle (VEH; Tween-80:PBS, 1:13), or PHAR for 5 days a week for 4 weeks. A) weight evolution during the weeks of treatment. (B-E) serum analysis of the levels of albumin (B), total protein (C) and liver transaminases, aspartate transaminase, AST (D), and alanine transaminase, ALT (E). The ranges of normal values are highlighted with a green dashed line. The number of individuals per group is reflected in the graphs.
Preliminary safety studies have been performed in 7-week-old control and streptozotocin (STZ)-treated mice. These mice were subjected to an I.P treatment of 50 mg/kg of vehicle (Tween-80: PBS, 1:13) or PHAR for 4 weeks with 5 weekly doses. […] On the other hand, serum levels of albumin, total protein and two transaminases (AST and ALT) were analyzed.

Sequence of SCF-βTrCP / NRF2 (Q9Y297 whole entry, canonical isoform): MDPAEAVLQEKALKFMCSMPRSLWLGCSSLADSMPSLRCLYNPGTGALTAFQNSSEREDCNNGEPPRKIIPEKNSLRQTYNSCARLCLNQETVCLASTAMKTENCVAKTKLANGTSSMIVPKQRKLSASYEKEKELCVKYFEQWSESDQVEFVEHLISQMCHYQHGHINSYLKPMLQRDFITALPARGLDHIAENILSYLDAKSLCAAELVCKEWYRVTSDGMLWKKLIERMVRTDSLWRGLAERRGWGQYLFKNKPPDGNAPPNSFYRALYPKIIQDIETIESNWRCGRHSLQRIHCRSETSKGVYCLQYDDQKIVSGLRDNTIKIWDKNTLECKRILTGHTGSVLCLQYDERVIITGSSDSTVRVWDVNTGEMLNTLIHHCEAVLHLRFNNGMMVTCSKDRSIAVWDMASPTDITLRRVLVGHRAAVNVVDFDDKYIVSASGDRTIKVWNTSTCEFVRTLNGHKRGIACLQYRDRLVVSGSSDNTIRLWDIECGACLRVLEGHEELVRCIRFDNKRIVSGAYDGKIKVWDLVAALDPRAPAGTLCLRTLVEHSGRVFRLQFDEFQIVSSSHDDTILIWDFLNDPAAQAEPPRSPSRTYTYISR
Sequence of SCF-βTrCP / NRF2 (P63208 whole entry partner, canonical isoform): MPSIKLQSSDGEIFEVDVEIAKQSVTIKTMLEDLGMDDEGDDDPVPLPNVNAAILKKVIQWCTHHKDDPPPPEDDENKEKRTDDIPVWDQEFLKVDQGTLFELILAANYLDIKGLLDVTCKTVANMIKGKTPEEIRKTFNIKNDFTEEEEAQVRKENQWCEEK
Sequence of SCF-βTrCP / NRF2 (Q13616 whole entry partner, canonical isoform): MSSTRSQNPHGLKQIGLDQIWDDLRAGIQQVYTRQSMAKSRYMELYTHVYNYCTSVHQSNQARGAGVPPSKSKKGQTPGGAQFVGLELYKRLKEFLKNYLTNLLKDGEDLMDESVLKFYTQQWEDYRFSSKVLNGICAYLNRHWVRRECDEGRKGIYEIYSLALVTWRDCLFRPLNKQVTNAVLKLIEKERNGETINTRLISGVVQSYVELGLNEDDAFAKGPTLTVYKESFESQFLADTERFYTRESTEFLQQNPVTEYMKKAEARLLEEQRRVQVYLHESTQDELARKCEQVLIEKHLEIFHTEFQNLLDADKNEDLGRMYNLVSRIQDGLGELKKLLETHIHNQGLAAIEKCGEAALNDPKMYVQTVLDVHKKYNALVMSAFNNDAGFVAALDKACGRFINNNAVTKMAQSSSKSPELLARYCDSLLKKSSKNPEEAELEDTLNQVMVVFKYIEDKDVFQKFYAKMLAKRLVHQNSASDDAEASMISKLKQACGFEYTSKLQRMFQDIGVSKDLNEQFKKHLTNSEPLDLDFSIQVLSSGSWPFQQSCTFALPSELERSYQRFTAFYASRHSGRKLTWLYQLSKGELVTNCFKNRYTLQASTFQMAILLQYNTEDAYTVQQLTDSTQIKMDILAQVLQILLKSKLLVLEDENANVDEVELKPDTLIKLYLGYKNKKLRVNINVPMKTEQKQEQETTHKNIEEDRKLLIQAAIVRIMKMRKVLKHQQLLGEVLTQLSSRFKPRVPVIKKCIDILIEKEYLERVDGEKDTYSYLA
Sequence of SCF-βTrCP / NRF2 (P62877 whole entry partner, canonical isoform): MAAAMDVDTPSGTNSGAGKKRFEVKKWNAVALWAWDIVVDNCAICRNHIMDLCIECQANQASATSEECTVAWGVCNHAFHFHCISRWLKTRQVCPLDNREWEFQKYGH

O=C1[C@@H]2[C@H](Cc3c[nH]c4ccccc34)N[C@]3(C(=O)Nc4ccc(Cl)cc43)[C@@H]2C(=O)N1c1ccc2c(c1)OCCO2 [PHAR]
HO-1 accumulation in sh β-TrCP1/2 cells compared with shCTRL (β-TrCP1 and β-TrCP2; PHAR 10 μM): considerably lower; also recorded: lower in cells lacking β-TrCP1/2 | Hmox1 and Nqo1 mRNA induction in sh β-TrCP1/2 cells (β-TrCP1 and β-TrCP2; PHAR 10 μM): induction generated by PHAR is lost | NRF2 levels in shCTRL cells (β-TrCP1 and β-TrCP2; PHAR 10 μM, 2, 4, 8 h): increase in NRF2 levels from 2 h to 8 h | NRF2 accumulation in sh β-TrCP1/2 cells compared with shCTRL (β-TrCP1 and β-TrCP2; silencing about 50%, PHAR 10 μM): considerably lower; also recorded: significantly lower compared with shCTRL cells | ubiquitination (polyubiquitination) of NRF2 by βTrCP (SCF-βTrCP / NRF2): prevents the ubiquitination of NRF2 | ubiquitination (polyubiquitination) of NRF2 by βTrCP (SCF-βTrCP / NRF2; listed as PH): polyubiquitination was considerably lower | concentration from which substrate polyubiquitination starts to be reduced (SCF-βTrCP / NRF2; dose curve 3-3000 nM): 100 nM | body weight during treatment ([1]; control and STZ-treated mice, I.P 50 mg/kg, 5 weekly doses, 4 weeks): did not lose weight | serum albumin, total protein, AST and ALT ([1]; control and STZ-treated mice, I.P 50 mg/kg, 5 weekly doses, after 4 weeks): values within normal ranges | toxicity of chronic / prolonged administration ([1]; mice, daily IP 5 days a week for 4 weeks): does not produce toxicity; also recorded: prolonged administration of PHAR is safe

From US12590100B2, “Tetrahydro-spiroindoline-pyrrolopyrrole-triones inhibitors of the NRF2-β-TrCP interaction for use in the treatment of fatty liver disease” (Universidad Autonoma De Madrid, priority 2021, dated 2026)
